Reference: US20160046618A1, “Cyclopropyl Fused Thiazin-2-Amine Compounds as Beta-Secretase Inhibitors and Methods of Use” (AMGEN INC., priority 2014, published 2016)

Experiments:
Recombinant Cat D = Recombinant Cat D (Homo sapiens (Human), UniProt P07339); assay: In vitro enzymatic Cathepsin D (Cat D) FRET assay; type: biochemical; conditions: read-out: IC50 IP (μM) CatD
How it was run: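 Assay pH is 3.5 (0.05 M citrate, 5 mM CHAPS, 10% DMSO final) with Cat D from CHO cells. A 20 nM quenched peptide substrate is cleaved over one hour; the reaction is ended with Tris and read by fluorescence (ex 500, em 580 nm).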

human recombinant BACE2 = human recombinant BACE2 (Homo sapiens (Human), UniProt Q9Y5Z0); assay: In vitro enzymatic BACE2 FRET assay; type: biochemical; conditions: read-out: IC50 IP (μM) BACE2 enzyme
human recombinant BACE2, sequence (Q9Y5Z0 63-518): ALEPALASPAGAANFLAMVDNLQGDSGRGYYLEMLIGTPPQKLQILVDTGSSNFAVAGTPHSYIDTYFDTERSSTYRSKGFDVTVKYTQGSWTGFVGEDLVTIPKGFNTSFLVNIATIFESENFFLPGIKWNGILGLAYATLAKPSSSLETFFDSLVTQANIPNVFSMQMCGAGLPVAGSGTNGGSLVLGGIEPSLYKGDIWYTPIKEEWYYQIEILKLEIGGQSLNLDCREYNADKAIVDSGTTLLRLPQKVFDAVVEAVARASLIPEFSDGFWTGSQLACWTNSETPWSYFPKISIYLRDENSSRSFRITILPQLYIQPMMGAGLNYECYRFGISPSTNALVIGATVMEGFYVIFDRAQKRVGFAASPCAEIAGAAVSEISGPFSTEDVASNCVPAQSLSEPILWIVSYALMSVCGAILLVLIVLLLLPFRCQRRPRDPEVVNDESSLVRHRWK
How it was run: (§1)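 Ni-NTA-purified recombinant protease incubated with compound; reaction started with 50 nM FRET peptide substrate (fluorophore/quencher flanking the BACE cleavage site) and run 1 h. Stopped with Tris buffer raising pH to neutral; fluorescence read at ex 488/em 590 nm.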

human recombinant BACE1 = human recombinant BACE1 (Homo sapiens (Human), UniProt P56817); assay: In vitro enzymatic BACE1 FRET assay; type: biochemical; conditions: read-out: IC50 IP (μM) BACE1 enzyme
human recombinant BACE1, sequence (P56817 46-501): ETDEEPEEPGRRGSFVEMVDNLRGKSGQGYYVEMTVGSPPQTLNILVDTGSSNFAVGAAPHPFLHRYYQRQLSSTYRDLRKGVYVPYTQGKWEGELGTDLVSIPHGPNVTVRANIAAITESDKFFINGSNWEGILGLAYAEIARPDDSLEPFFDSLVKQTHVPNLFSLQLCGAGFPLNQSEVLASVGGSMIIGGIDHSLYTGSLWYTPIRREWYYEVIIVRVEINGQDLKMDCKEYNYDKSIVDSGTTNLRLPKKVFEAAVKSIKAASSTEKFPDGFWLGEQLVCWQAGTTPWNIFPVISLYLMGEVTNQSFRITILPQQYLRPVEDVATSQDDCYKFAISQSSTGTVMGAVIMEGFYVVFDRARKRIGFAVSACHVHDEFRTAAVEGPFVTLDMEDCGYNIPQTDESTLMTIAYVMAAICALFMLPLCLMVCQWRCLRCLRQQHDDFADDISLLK
How it was run: as §1

[1] = system: Aβ40 in conditioned medium of cells stably expressing Amyloid Precursor Protein (APP); assay: In vitro BACE-1 cell-based assay (Aβ40 sandwich ELISA); conditions: read-out: IC50 IP (μM) BACE1 cell
How it was run: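 APP-expressing cells treated 24 h at 37 °C with compound in 10-point dose response (top 100 μM or 10 μM, 0.1% DMSO final). Secreted Aβ40 in conditioned medium quantified by sandwich ELISA (pAb40 capture, biotinylated 6E10 detection, time-resolved europium fluorescence); IC50 from percent inhibition versus concentration.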

Recombinant Cat D, sequence (P07339 65-412): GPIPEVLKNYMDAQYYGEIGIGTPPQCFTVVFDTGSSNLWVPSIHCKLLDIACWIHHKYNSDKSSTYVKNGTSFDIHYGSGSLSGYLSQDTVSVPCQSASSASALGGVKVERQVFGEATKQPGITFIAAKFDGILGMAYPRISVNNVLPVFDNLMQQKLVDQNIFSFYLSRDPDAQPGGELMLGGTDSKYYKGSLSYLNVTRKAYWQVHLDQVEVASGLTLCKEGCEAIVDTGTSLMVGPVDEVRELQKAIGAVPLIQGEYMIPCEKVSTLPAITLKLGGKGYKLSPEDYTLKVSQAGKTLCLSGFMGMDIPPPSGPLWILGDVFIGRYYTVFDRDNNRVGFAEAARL

| IC50 (Recombinant Cat D) [µM] | IC50 (human recombinant BACE2) [µM] | IC50 (human recombinant BACE1) [µM] | IC50 [1] [µM] | Compound |
| --- | --- | --- | --- | --- |
| 282 | < 0.00203 | 0.00169 | 0.00431 | N#CCC[C@]12C[C@H]1[C@@](CF)(c1cc(NC(=O)c3ccc(Cl)cn3)ccc1F)N=C(N)S2 [Example 723, N-(3-((1S,5S,6S)-3-amino-1-(2-cyanoethyl)-5-(fluoromethyl)-2-thia-4-azabicyclo[4.1.0]hept-3-en-5-yl)-4-fluorophenyl)-5-chloro-2-pyridinecarboxamide] |
| 1080 | 0.0746 | 0.00208 | 0.00712 | C#CCOc1cnc2c(Nc3ccc(F)c([C@@]4(CF)N=C(N)S[C@@]5(Cn6cc(C)nn6)C[C@H]54)c3)nccc2n1 [Example 724, N-(3-((1S,5S,6S)-3-amino-5-(fluoromethyl)-1-((4-methyl-1H-1,2,3-triazol-1-yl)methyl)-2-thia-4-azabicyclo[4.1.0]hept-3-en-5-yl)-4-fluorophenyl)-2-(2-propyn-1-yloxy)pyrido[3,4-b]pyrazin-5-amine] |
| 1160 | 0.00251 | 0.00565 | 0.0148 | Cc1cnnn1C[C@]12C[C@H]1[C@@](CF)(c1cc(NC(=O)c3ccc(Cl)cn3)ccc1F)N=C(N)S2 [Example 725, N-(3-((1S,5S,6S)-3-amino-5-(fluoromethyl)-1-((5-methyl-1H-1,2,3-triazol-1-yl)methyl)-2-thia-4-azabicyclo[4.1.0]hept-3-en-5-yl)-4-fluorophenyl)-5-chloro-2-pyridinecarboxamide] |
| > 400 | 0.641 | 0.179 | 0.406 | COC[C@]12C[C@H]1[C@@](C)(c1cc(Nc3nccc4cc(OCc5cnco5)cnc34)cc(F)c1F)N=C(N)S2 [Example 726, N-(3-((1S,5S,6S)-3-amino-1-(methoxymethyl)-5-methyl-2-thia-4-azabicyclo[4.1.0]hept-3-en-5-yl)-4,5-difluorophenyl)-3-(1,3-oxazol-5-ylmethoxy)-1,7-naphthyridin-8-amine] |
| 856 | 0.385 | 0.0282 | 0.0457 | COC[C@]12C[C@H]1[C@@](C)(c1cc(Nc3nccc4cc(OCC#N)cnc34)cc(F)c1F)N=C(N)S2 [Example 729, ((8-((3-((1S,5S,6S)-3-amino-1-(methoxymethyl)-5-methyl-2-thia-4-azabicyclo[4.1.0]hept-3-en-5-yl)-4,5-difluorophenyl)amino)-1,7-naphthyridin-3-yl)oxy)acetonitrile] |
| 1380 | 1.03 | 0.0157 | 0.0759 | COC[C@]12C[C@H]1[C@@](C)(c1cc(Nc3nccc4cc(OCc5ncon5)cnc34)cc(F)c1F)N=C(N)S2 [Example 730, N-(3-((1S,5S,6S)-3-amino-1-(methoxymethyl)-5-methyl-2-thia-4-azabicyclo[4.1.0]hept-3-en-5-yl)-4,5-difluorophenyl)-3-(1,2,4-oxadiazol-3-ylmethoxy)-1,7-naphthyridin-8-amine] |
| 1100 | 3.83 | 0.0668 | 1.3 | COC[C@]12C[C@H]1[C@@](C)(c1cc(Nc3nccc4cc(OCC(F)(F)C(F)F)cnc34)cc(F)c1F)N=C(N)S2 [Example 731, N-(3-((1S,5S,6S)-3-amino-1-(methoxymethyl)-5-methyl-2-thia-4-azabicyclo[4.1.0]hept-3-en-5-yl)-4,5-difluorophenyl)-3-(2,2,3,3-tetrafluoropropoxy)-1,7-naphthyridin-8-amine] |
| 600 | 0.737 | 0.00339 | 0.034 | COC[C@]12C[C@H]1[C@@](C)(c1cc(NC(=O)c3ccc(OCC(F)(F)C(F)F)cn3)cc(F)c1F)N=C(N)S2 [Example 732, N-(3-((1S,5S,6S)-3-amino-1-(methoxymethyl)-5-methyl-2-thia-4-azabicyclo[4.1.0]hept-3-en-5-yl)-4,5-difluorophenyl)-5-(2,2,3,3-tetrafluoropropoxy)-2-pyridinecarboxamide] |
| 1520 | 0.0642 | 0.00638 | 0.014 | C#CCOc1cnc2c(Nc3cc(F)c(F)c([C@@]4(C)N=C(N)S[C@@]5(COC)C[C@H]54)c3)nccc2c1 [Example 733, N-(3-((1S,5S,6S)-3-amino-1-(methoxymethyl)-5-methyl-2-thia-4-azabicyclo[4.1.0]hept-3-en-5-yl)-4,5-difluorophenyl)-3-(2-propyn-1-yloxy)-1,7-naphthyridin-8-amine] |
| 2110 | 0.188 | 0.00173 | 0.017 | COC[C@]12C[C@H]1[C@@](C)(c1cc(NC(=O)c3cnc(OCC(F)(F)C(F)F)cn3)cc(F)c1F)N=C(N)S2 [Example 734, N-(3-((1S,5S,6S)-3-amino-1-(methoxymethyl)-5-methyl-2-thia-4-azabicyclo[4.1.0]hept-3-en-5-yl)-4,5-difluorophenyl)-5-(2,2,3,3-tetrafluoropropoxy)-2-pyrazinecarboxamide] |
| 1650 | 0.978 | 0.0412 | 1.76 | COC[C@]12C[C@H]1[C@@](C)(c1cc(Nc3nccc4cc(OCc5ncc(Cl)s5)cnc34)cc(F)c1F)N=C(N)S2 [Example 735, N-(3-((1S,5S,6S)-3-amino-1-(methoxymethyl)-5-methyl-2-thia-4-azabicyclo[4.1.0]hept-3-en-5-yl)-4,5-difluorophenyl)-3-((5-chloro-1,3-thiazol-2-yl)methoxy)-1,7-naphthyridin-8-amine] |
| 151 | 0.765 | 0.0317 | 1.07 | COC[C@]12C[C@H]1[C@@](C)(c1cc(Nc3nccc4cc(OCc5nc(Br)cs5)cnc34)cc(F)c1F)N=C(N)S2 [Example 736, N-(3-((1S,5S,6S)-3-amino-1-(methoxymethyl)-5-methyl-2-thia-4-azabicyclo[4.1.0]hept-3-en-5-yl)-4,5-difluorophenyl)-3-((4-bromo-1,3-thiazol-2-yl)methoxy)-1,7-naphthyridin-8-amine] |
| 1500 | 0.693 | 0.0325 | 0.274 | COC[C@]12C[C@H]1[C@@](C)(c1cc(Nc3nccc4cc(OCc5nccs5)cnc34)cc(F)c1F)N=C(N)S2 [Example 737, N-(3-((1S,5S,6S)-3-amino-1-(methoxymethyl)-5-methyl-2-thia-4-azabicyclo[4.1.0]hept-3-en-5-yl)-4,5-difluorophenyl)-3-(1,3-thiazol-2-ylmethoxy)-1,7-naphthyridin-8-amine] |
| 1460 | 0.158 | 0.00421 | 0.0169 | COC[C@]12C[C@H]1[C@@](C)(c1cc(NC(=O)c3cnc(OCC(C)(F)F)cn3)cc(F)c1F)N=C(N)S2 [Example 739, N-(3-((1S,5S,6S)-3-amino-1-(methoxymethyl)-5-methyl-2-thia-4-azabicyclo[4.1.0]hept-3-en-5-yl)-4,5-difluorophenyl)-5-(2,2-difluoropropoxy)-2-pyrazinecarboxamide] |
| 927 | 0.209 | 0.0055 | 0.0194 | COC[C@]12C[C@H]1[C@@](C)(c1cc(NC(=O)c3cnc(OCCCF)cn3)cc(F)c1F)N=C(N)S2 [Example 740, N-(3-((1S,5S,6S)-3-amino-1-(methoxymethyl)-5-methyl-2-thia-4-azabicyclo[4.1.0]hept-3-en-5-yl)-4,5-difluorophenyl)-5-(3-fluoropropoxy)-2-pyrazinecarboxamide] |
